From US8895032B2, “Dendritic nano-antioxidants” (Central Michigan University, priority 2009, dated 2014)

Tests used:
[1] = system: Chinese hamster ovary (CHO-K1) cells; experiment: Cell toxicity, MTT; type: cell-based; conditions: 3.1-50 μM, over 5 days
Procedure: Data on cell toxicity of compound 4 and compound 5 were obtained with Chinese hamster ovary (CHO) cells using 3-(4,5-di-methylthizol-2-yl)-2,5 diphenyltetrazolium bromide (MTT). Chinese Hamster Ovary (CHO-K1) cells were cultured in F-12K medium supplemented with 10% fetal bovine serum. The cells (3×10^5/ml) were seeded in 100 μL volumes in 96 well culture plates and incubated with the solvent control (DMSO, 0.3%), compound 4 or compound 5 at 3.1, 6.2, 12.5, 25, or 50 μM for 1, 3, or 5 days. Two hours prior to experimental termination, 20 μL of a 5 mg/mL MTT solution in 0.01 M PBS was added to each well. Plates were centrifuged at 450×g for 10 min and supernatant was removed. The resultant formazan crystals were dissolved in 100 μL DMSO and mixed. Absorbance was measured using a Biolog microplate reader (Biotek Instruments) at dual wavelengths, 590 and 650 nm. Percent control response was calculated as follows: (absorbance of treatment/absorbance of control)×100. All experiments were performed in triplicate and repeated. The data were analyzed using Systat 12 for windows. Multiple groups were compared using a one-way analysis of variance (ANOVA) and a Tukey test for mean separation. A p value<0.05 was considered statistically significant.

[2] = system: Human LDL; experiment: Protection of LDL from AAPH oxidation (agarose gel electrophoresis); type: biochemical; conditions: 21 h, 37° C.
Description: The antioxidant activity of compounds 1, 2, and 3 towards biomolecules was examined by studying their ability to protect LDL, fatty acid, and DNA from free radicals. For LDL, AAPH was used to induce free radical damage. AAPH was used instead of copper (Cu^2) ion for LDL oxidation so that the free radical scavenging activity of the antioxidants could be measured without any pro-oxidant interference caused by metal ions (Salah, N. et al. Arch. Biochem. Biophys. 1995, 322, 339, incorporated herein by reference in its entirety). All solutions were made in ultra-pure water.
Protection of LDL from AAPH free radicals by the antioxidant decreased the anodic shift in a dose-dependent manner (FIG. 23). […] The increased hydrophobicity of compound 3 may be partly responsible for its improved LDL protection over compound 2.
The antioxidant activity of the antioxidants towards biomolecules was examined by studying their ability to protect LDL, lysozyme, and DNA from free radicals. For LDL, AAPH was used to induce free radical damage. AAPH was used instead of Cu^2+ for LDL oxidation so that the free radical scavenging activity of the antioxidants could be measured without any pro-oxidant interference caused by metal ions. The oxidation of human low-density lipoprotein was used as a model for evaluating the ability of the G1 dendrimers as chain-breaking antioxidants for lipid. Oxidation of LDL leads to changes in both the lipid and the protein moieties of the lipoprotein particle. Lipid peroxidation in LDL has been evaluated by a variety of methods. Due to the complexity of events that occur in lipoprotein oxidation, the electrophoretic migration pattern of oxidized LDL is one of the best methods to evaluate the extent of lipoprotein oxidation. LDL was incubated with 20 mM AAPH and increasing concentrations of the G1 dendrimers (0-37 μM in PBS) for 21 h at 37° C. The mixture was then subjected to agarose gel electrophoresis using the Ciba Corning Clinical Electrophoresis System. The agarose gel was stained with Fat Red 7B. In FIG. 30A (top), lane 1 is native LDL, and lanes 2-8 are AAPH-oxidized LDL with 0, 37, 18.5, 9, 4.5, 2 and 1 μM compound 4, respectively. In FIG. 30B (bottom), lane 1 is native LDL, and lanes 2-8 are AAPH-oxidized LDL with 0, 37, 18.5, 9, 4.5, 2 and 1 μM quercetin or Trolox, respectively.

[3] = DPPH radical assay; conditions: read-out: DPPH IC50 at 120 min; Example 15
Procedure: The DPPH assay was one of three electron transfer (ET) assays used to determine the antioxidant potential of compound 1 (described in Example 6) in comparison to its monomeric counterpart (syringaldehyde) as well as popular antioxidants. In an ET assay, an antioxidant donates electron(s) to a molecular probe, thus reducing it. From the assay, thermodynamic conversion of antioxidant to antioxidant radical (oxidation) is measured during a fixed time period.
The reduction of DPPH radical was determined for ascorbic acid, Trolox, syringaldehyde, and the compound 1 described in Example 6 as previously reported (Brand-Williams, et al. Lebensm.-Wiss U.-Technol. 1995, 28, 25-30, incorporated herein by reference in its entirety). In the DPPH assay, DPPH• radical was reduced by the antioxidant in methanol (Brand-Williams, et al. Lebensm.-Wiss U.-Technol. 1995, 28, 25-30, incorporated herein by reference in its entirety). […] The DPPH reagent was made in methanol. Antioxidant sample (10 μL) was added to 1.0 mL of reagent and the absorbance was monitored at 515 nm until a plateau was reached. Antioxidant concentrations were 50 μM syringaldehyde, 12.5 μM Trolox and ascorbic acid, and 5 μM compound 1. All samples were made in methanol and run in triplicates at room temperature.
The DPPH• scavenging capacity of each antioxidant was evaluated from the plot of the percentage DPPH• remaining when the kinetics reached a steady state as a function of the molar ratios of antioxidant to DPPH•. […] Using the curve, EC50 (the amount of antioxidant necessary to decrease the initial DPPH• concentration by 50%), antiradical power (1/EC50, ability to reduce the DPPH•), reaction stoichiometry (EC50×2, the concentration of antioxidant required to reduce 100% of DPPH• radical), and the number of reduced DPPH• per antioxidant molecule (1/stoichiometry) for each antioxidant were calculated as previously described (Brand-Williams, et al. Lebensm.-Wiss U.-Technol. 1995, 28, 25-30, incorporated herein by reference in its entirety) and are depicted in Table 1.
Antioxidant capacity of the compounds was assessed by the DPPH assay (Brand-Williams, et al. Lebensm. Wiss. Technol. 1995, 28, 25, incorporated herein by reference in its entirety). […] In FIG. 22, control with methanol is (X, dashed); compound 1 is (□), compound 2 is (•), compound 3 is (◯), and Trolox (Δ). All antioxidant concentrations were 5 μM.
The free-radical scavenging ability of the antioxidants was evaluated by the DPPH assay, as described above in Example 7.

[4] = system: plasmid DNA pBR 322; experiment: Protection of plasmid DNA from AAPH damage (agarose electrophoresis); type: biochemical; conditions: 10 mM AAPH, 37° C., 4 h; for DNA protection: 5 μM antioxidant
Procedure: The effectiveness of the three compounds to protect DNA from AAPH damage was also determined. The plasmid DNA pBR 322 was incubated with AAPH (final concentration 10 mM) at 37° C. for 4 h with or without antioxidants (final concentrations, 0.35-45 μM), after which the samples were subjected to agarose electrophoresis (Sakihama, Y., et al. Toxicology 2002, 177, 67, incorporated herein by reference in its entirety). […] In the absence of AAPH, pBR 322 was mostly in its supercoiled (S) form (small amount of open circular, O, form was also visible, lane 1 FIG. 25). After reaction with AAPH, the DNA was transformed almost entirely into its open circular form (lane 2, FIG. 25). […] No protection was obtained for both compound 1 and quercetin below 5 μM (lanes 7-10, FIG. 25). […] Compound 3 as well as Trolox were ineffective at all concentrations used in the experiment (0.35-45 μM).
Protection of DNA from free radical damage by the antioxidant dendrimers (compounds 4, 5, and 1) was also evaluated. Plasmid DNA (pBR 322) samples, were incubated with AAPH (final concentration 10 mM) at 37° C. for 4 h with antioxidants (final concentrations, 0.35-45 μM) and subjected to agarose electrophoresis. […] The native DNA was mostly in its supercoiled (S) form (small amount of open circular, O, form was also visible, lane 1, FIG. 31). In the presence of AAPH, the DNA was transformed almost entirely into its O form (lane 2, FIG. 31). […] Negligible DNA protection was afforded by all three dendrimers at ≦2.5 μM (lanes 7-10, FIG. 31). Under similar conditions, Trolox as well as the starting materials for dendrimer synthesis were ineffective at all concentrations.

SMILES | CHO cell viability (MTT) [1] | protection of LDL against free radical damage ([2]; 15 μM and 30 μM, 20 mM AAPH) | protection of LDL at lower concentrations ([2]; lanes 5-8, 20 mM AAPH) | IC50 [3] [nM] | DNA protection [4] | DNA protection (S band intensity) ([4]; 11-45 μM antioxidant) | only concentration effective in protecting LDL ([2]; 20 mM AAPH) [µM]
COc1cc(CN(CCN(CCN(Cc2cc(OC)c(O)c(OC)c2)Cc2cc(OC)c(O)c(OC)c2)CCN(Cc2cc(OC)c(O)c(OC)c2)Cc2cc(OC)c(O)c(OC)c2)Cc2cc(OC)c(O)c(OC)c2)cc(OC)c1O [Compound 4] | did not show any reduction in cell viability | fully protected | ineffective | 2000 | Some protection | well protected | –
COc1cc(CN(CCN(CCN(Cc2ccc(O)c(OC)c2)Cc2ccc(O)c(OC)c2)CCN(Cc2ccc(O)c(OC)c2)Cc2ccc(O)c(OC)c2)Cc2ccc(O)c(OC)c2)ccc1O [Compound 5] | did not show any reduction in cell viability | – | – | 2000 | Some protection | – | 30
